Test results reported in article PMC7925099, “Identification of an Antiretroviral Small Molecule That Appears To Be a Host-Targeting Inhibitor of HIV-1 Assembly” (Journal of Virology, 2021).

Key:
[1] = system: HIV-1 (chronically infected H9 T cells, H9-HIV); experiment: Inhibition of HIV-1 late events: infectious virus production by H9-HIV cells; assay type: cell-based; settings: Human immunodeficiency virus 1, 48 h, titered on TZM-bl cells, read-out: EC50INF (inhibition of infectivity of culture supernatant)
Procedure: For these experiments, we used H9-HIV, a chronically infected H9 T cell line. Compounds were diluted as described under MT-2 spreading infection above. […] To measure inhibition of virus production (Fig. 3B, blue graph and blot), PEG pelleted virus (harvested as described in “Virus pelleting” above) was analyzed by WB with αGag.

[2] = system: HIV-1 (chronically infected H9 T cells, H9-HIV); experiment: Inhibition of HIV-1 late events: virus production (αGag WB of pelleted virus); assay type: cell-based; settings: Human immunodeficiency virus 1, T-cell
FIV 34TF10 = experiment: FIV inhibition assay (spreading infection, RT activity); assay type: cell-based, feline immunodeficiency virus
Procedure: G355-5 cells were transfected in six-well plates, and each well was transfected with 2 μg per well of FIV 34TF10 ORFA+ proviral plasmid. At 24 h posttransfection, the cells were washed, and the medium was replaced with 4 ml of complete McCoy 5A. At 144 h posttransfection, the medium was filtered using a 0.45-μm syringe filter, aliquoted, and stored at −80°C. The reverse transcriptase (RT) activity in media from FIV or mock-transfected cells was estimated using SG-PERT ([94]). A set of recombinant RT standards (EMD Millipore, Molsheim, France; catalog no. 382129) ranging from 5.12E3 to 5.12E9 nU/ml was used to estimate the nU/ml of RT activity in the FIV stock.
Inhibition of FIV spreading infection was assayed using G355-5 cells, seeded on the prior day at 8,000 cells/well in a 96-well plate.

MT-2 cells [3] = system: MT-2 cells
Procedure: (§1) For each viral inhibition assay, a cytotoxicity assay was performed in parallel on uninfected cells by adding 1/10 volume of alamarBlue (Thermo Fisher, Waltham, MA; DAL1199) to the plates, followed by thorough mixing. AlamarBlue-treated plates were incubated for 2 to 3 h at 37°C (the timing was optimized for the linear signal), mixed well, and read using a fluorescence plate reader with 560 nm and 590 nm as the excitation and emission settings, respectively (Synergy H1; BioTek Instruments, Inc.).
(§2) EC50 and CC50 values were determined in Excel using four-parameter logistic regression analysis of dose-response data generated from the viral inhibition or cytotoxicity assays, respectively. […] Average EC50 and CC50 values were calculated using the geometric mean and average values were reported with the geometric standard deviation (GSD).

HIV-1 NL4-3 RLuc = experiment: MT-2 spreading infection assay (inhibition of HIV-1 replication); settings: for EC50: Human immunodeficiency virus 1, NL43, T-cell, 96 h, read-out: EC50 for inhibition of HIV-1 replication; for SI (CC50/EC50): from average values
Procedure: Inhibition of HIV-1 viral replication was assayed in a spreading infection using MT-2 cells and NL4-3 RLuc reporter virus. For dose-response curves, compounds were initially diluted with DMSO to 100-fold the starting concentration in a 96-well plate and subjected to a series of 3-fold dilutions in DMSO for a total of eight or nine dilutions. If a single compound concentration was tested, the compound was diluted to 100-fold the desired concentration in DMSO. Compounds were then diluted 50-fold with infection media prepared by diluting NL4-3 RLuc virus stock to 400 IU/100 μl with complete RPMI. Then, 100 μl of 50-fold-diluted compound was transferred to 20,000 MT-2 cells that were preseeded in 96-well plates in 100 μl of complete RPMI for a final volume of 200 μl, followed by incubation at 37°C for 96 h. The final MOI in infected plates was 0.02, and the final DMSO concentration in all wells was 1%. All assays were run with three replicates. For each replicate, one well received DMSO only, and one well received medium only for normalization and background correction. […] Plates were read on a luminescence plate reader (Synergy H1; BioTek Instruments, Inc.).
as §2

in vitro [4] = settings: human, CC50
Procedure: as §1, §2

in vitro [5] = settings: cat
Procedure: as §1, §2

[6] = system: HIV-1 LAI pro– Δenv (pseudotyped with HIV-1 NL4-3 Env); experiment: MT-2 acute infection assay (VLP, intracellular Gag, assembly intermediates); settings: MT-2 cells
Procedure: For Fig. 3B, culture supernatants were collected at 48 h, and virus was pelleted by adding 75 μl of 17% PEG 6000–0.8 M NaCl–PBS to 75 μl of medium from the assay in a 96-well V-bottom polypropylene plate. PEG and media were incubated on ice for 2 h or overnight at 4°C. Virus was pelleted at 1,847 × g for 30 min at 4°C in the plate in an Allegra centrifuge (Beckman), and the pellet was resuspended in 50 μl of loading buffer with dithiothreitol for analysis by WB with αGag. For Fig. 4, culture supernatants were collected at 48 h postinfection and filtered through a 0.45-μm PES syringe filter to remove any remaining cells. Virus-like particles were centrifuged through a 30% (wt/vol) sucrose-PBS cushion at 130,000 × g, 30 min, and 4°C in an SW55Ti rotor (Beckman), and the virus pellet was harvested for analysis by WB with αGag.
MT-2 cells were diluted to 2 × 10^6 cells/ml with complete RPMI and bulk infected at an MOI of 1 for 2 h at 37°C. Compound was diluted 100-fold to the final required concentration with DMSO. The compound dilutions and DMSO-only controls were then further diluted 50-fold with complete RPMI, and 1 ml of the dilutions was added per well in a 12-well plate. Bulk-infected cells were then washed and adjusted to 0.5 × 10^6 cells/ml, and 1 ml of infected cells was added to each well containing diluted compound or DMSO. At 48 h, the medium was collected for virus pelleting as described above, and the cells were washed and lysed (see “Cell lysis” below).
MT-2 cells were collected and washed three times by pelleting at 200 × g for 5 min at 4°C in an Allegra centrifuge (Beckman) and resuspending cells in ice-cold PBS. Cell pellets were lysed with 250 μl lysis buffer (20 mM HEPES [pH 7.9], 14 mM potassium acetate, 1 mM MgCl2, 0.3% NP-40), followed by shearing 20× with a 20-gauge needle. Cell lysate was then clarified 200 × g for 10 min at 4°C in an Allegra centrifuge (Beckman). The supernatant was transferred to a fresh tube and further clarified by centrifugation at 18,000 × g for 10 min at 4°C in a Microfuge (Beckman), and the supernatant was transferred to a fresh tube.
To prepare gradients, 10, 15, 40, 50, 60, 70, and 80% (wt/vol) sucrose solutions were prepared with water, and then each was diluted 1/10 with a 10× stock of the lysis buffer used to harvest cells (see “Cell lysis”). For each gradient, ∼100 μl of cell lysate (∼100 μg of total protein) was layered on a 5-ml step gradient containing equivalent layers of each diluted sucrose solution prepared and subjected to velocity sedimentation in a Beckman MLS-50 rotor 217,000 × g for 45 min at 4°C. Gradients were fractionated from top to bottom, and pelleted material was harvested for WB. Aliquots of fractions and pellet were analyzed by SDS-PAGE, followed by WB with αGag.

[7] = Cytotoxicity assay on SupT1.CCR5 cells; settings: human, SupT1.CCR5 cells (uninfected)
Procedure: as §1, §2

in vitro [8] = assay type: cell-based; settings: human
[9] = system: influenza A virus WSN/33 (H1N1) (FLUV); assay type: cell-based
PBMCs = settings: human
Procedure: as §1, §2

MT-2 cells [10] = experiment: Cytotoxicity assay (alamarBlue) on uninfected MT-2 T cells; settings: uninfected MT-2 cells
Procedure: as §1, §2

HIV-1 NL4-3 [11] = experiment: PBMC spreading infection assay; assay type: cell-based
Procedure: Thawed, unstimulated PBMCs (BenTech, Seattle, WA) were pelleted by centrifugation 228 × g for 8 min in an Allegra centrifuge (Beckman, Brea, CA). Pellets were resuspended in activation medium containing RPMI supplemented with 21 ng/ml human interleukin-2 (IL-2; […] Remel, San Diego, CA; R30852801), 10% FBS, and 1% penicillin-streptomycin, at a density of 2 × 10^6 cells/ml. After a 3-day incubation, the cells were collected and resuspended in RPMI with 20% FBS and 10% DMSO and then frozen as 50 × 10^6 cells per vial. […] Compound dilutions were prepared in complete PBMC medium as described above, but without virus, and 100 μl of diluted compound was transferred to 96-well U-bottom plates. Bulk-infected cells were pelleted and resuspended in complete PBMC medium at 1 × 10^6 cells/ml, and 100 μl of cell suspension was transferred to each well at 100,000 cells per well with diluted compound. After 96 h, the medium was collected for relative infectivity measurements as for the SupT1.CCR5 spreading infection assay.

HIV-1 NL4-3 [12] = assay type: cell-based; settings: MT-2 cells, 37 weeks of selection

In the case of `COc1cc(C)c(/C=C/C2NCCc3cc(OCc4ccccc4)c(OC)cc32)cc1OCc1ccccc1` (stereo not drawn) [PAV-117], the EC50 [1] is reported as 0.104 µM, the inhibition at 0.002 µM ([2]; 2 nM, H9-HIV, WB of virus pellets, read-out: % inhibition of virus production (relative to DMSO)) is reported as 2% and the inhibition at 0.005 µM ([2]; 5 nM, H9-HIV, WB of virus pellets, read-out: % inhibition of virus production (relative to DMSO)) is reported as 7%. It also gave an inhibition at 0.016 µM ([2]; 16 nM, H9-HIV, WB of virus pellets, read-out: % inhibition of virus production (relative to DMSO)) of 7%, an inhibition at 0.049 µM ([2]; 49 nM, H9-HIV, WB of virus pellets, read-out: % inhibition of virus production (relative to DMSO)) of 31% and an inhibition at 0.148 µM ([2]; 148 nM, H9-HIV, WB of virus pellets, read-out: % inhibition of virus production (relative to DMSO)) of 48%. It also gave an inhibition at 0.444 µM ([2]; 444 nM, H9-HIV, WB of virus pellets, read-out: % inhibition of virus production (relative to DMSO)) of 86%, an inhibition at 1.333 µM ([2]; 1333 nM, H9-HIV, WB of virus pellets, read-out: % inhibition of virus production (relative to DMSO)) of 92% and an inhibition at 4 µM ([2]; 4000 nM, H9-HIV, WB of virus pellets, read-out: % inhibition of virus production (relative to DMSO)) of 96%. It also gave an inhibition at 10 µM ([2]; 10000 nM, H9-HIV, WB of virus pellets, read-out: % inhibition of virus production (relative to DMSO)) of 92%, an EC50 ([2]; H9-HIV cells, 48 h, αGag WB, read-out: EC50VLP (inhibition of virus production, p24 Gag in virus pellets)) of 0.113 µM and an EC50 (FIV 34TF10; Feline immunodeficiency virus, feline G355-5 cells, FIV 34TF10, 144 h, RT activity, read-out: EC50 for inhibition of FIV replication) of 0.595 µM. The “fold by which FIV EC50 is lower than CC50 in G355-5 cells” value (FIV 34TF10; G355-5 cells) was less than 2 fold, the “CC50 (μM)” value (MT-2 cells [3]) was 1.4 ×/÷ 1.5 μM and the CC50 (MT-2 cells [3]; human) was 1.1 µM. The EC50 (HIV-1 NL4-3 RLuc) was 0.048 µM, the “SI (CC50/EC50)” value (HIV-1 NL4-3 RLuc; MT-2 cells) was 14 and the “selectivity index (CC50/EC50)” value (HIV-1 NL4-3 RLuc; MT-2 cells, from the shown dose-response curve) was 21. The CC50 (in vitro [4]) was 1 µM, the CC50 (in vitro [5]) was 1.1 µM and the “∼EC70 (treatment concentration)” value ([6]; 48 h treatment) was roughly 0.00025 µM. The “steady-state levels of actin and GAPDH” value ([6]; 48 h) was “minimally affected”, the “steady-state level of the ∼500S intermediate as a percentage of total Gag” value ([6]; 48 h, velocity sedimentation) was “dose-dependent decrease” and the “VLP release into the supernatant” value ([6]; protease-deficient provirus, 48 h) was “dose-dependent reduction”. The “steady-state intracellular p55 Gag levels” value ([6]; highest PAV-117 concentration tested, 48 h) was “some reduction”, the CC50 [7] was 1.1 µM and the CC50 (in vitro [8]) was 1.6 µM. For the same compound, the “activity against FLUV (infectious titer)” value [9] was “not active”.

With `COc1cc(C)c(/C=C/C2NCCc3cc(OCc4ccccc4)c(OC)cc32)cc1OC` (stereo not drawn) [PAV-206] the CC50PBMC (PBMCs) was 3.591 µM, the “CC50 (μM)” value (MT-2 cells [3]) was 2.2 ×/÷ 1.4 μM and the CC50MT-2 (MT-2 cells [10]) was 2.811 µM. For the same compound, the EC50 (HIV-1 NL4-3 RLuc) was 0.034 µM, the “SI (CC50/EC50)” value (HIV-1 NL4-3 RLuc; MT-2 cells) was 61 and the selectivity index (HIV-1 NL4-3 [11]; HIV-1-infected PBMCs) was 48. The EC50 (HIV-1 NL4-3 [11]; Human immunodeficiency virus 1, NL43, PBMC, PHA-activated PBMCs, HIV-1 NL4-3, MOI 0.008, 96 h) was 0.075 µM and the “resistance level reached: compound concentration allowing virus replication, fold higher than the EC50” value (HIV-1 NL4-3 [12]) was 8 fold.
